Calls of active or inactive are those of the source. The calls are words filed in the database; no cut-off is given here.
Legend:
[1] = Drug metabolism in bile duct cannulated rat assessed as CYP3A4-mediated oxidative metabolite formation; format: ADME
[2] = target: Somatostatin receptor type 1 (Homo sapiens, UniProt P30872); assay: Inhibition of somatostatin receptor subtype 1 (unknown origin)
[3] = Drug metabolism in dog hepatocytes assessed as lactone hydrolysis at 1 uM measured at 120 mins; format: ADME, cell-based, Canis lupus familiaris, Hepatocyte; details: read-out: Drug metabolism
[4] = target: T1, Inward rectifier potassium channel 4 (Homo sapiens) (UniProt P48050); assay: Inhibition of Kir2.3 (unknown origin) upto 30 uM
T1 sequence (whole entry): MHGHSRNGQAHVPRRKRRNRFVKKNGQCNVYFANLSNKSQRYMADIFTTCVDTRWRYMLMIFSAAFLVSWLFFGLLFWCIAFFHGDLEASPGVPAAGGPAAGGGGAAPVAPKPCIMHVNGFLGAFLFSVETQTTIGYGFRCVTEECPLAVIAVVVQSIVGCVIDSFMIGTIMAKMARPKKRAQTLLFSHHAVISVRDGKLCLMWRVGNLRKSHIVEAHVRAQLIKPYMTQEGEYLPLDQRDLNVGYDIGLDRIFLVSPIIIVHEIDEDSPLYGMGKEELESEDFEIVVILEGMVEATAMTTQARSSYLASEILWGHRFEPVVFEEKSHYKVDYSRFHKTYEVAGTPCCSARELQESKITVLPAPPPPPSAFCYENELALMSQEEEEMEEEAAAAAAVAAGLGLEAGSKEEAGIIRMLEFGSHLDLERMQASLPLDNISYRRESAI

[5] = Drug metabolism in bile duct cannulated rat assessed as glucuronidation; format: ADME
[6] = target: T2, Inward rectifier potassium channel 13 (Homo sapiens) (UniProt O60928); assay: Inhibition of Kir7.1 (unknown origin) upto 30 uM
T2 sequence (whole entry): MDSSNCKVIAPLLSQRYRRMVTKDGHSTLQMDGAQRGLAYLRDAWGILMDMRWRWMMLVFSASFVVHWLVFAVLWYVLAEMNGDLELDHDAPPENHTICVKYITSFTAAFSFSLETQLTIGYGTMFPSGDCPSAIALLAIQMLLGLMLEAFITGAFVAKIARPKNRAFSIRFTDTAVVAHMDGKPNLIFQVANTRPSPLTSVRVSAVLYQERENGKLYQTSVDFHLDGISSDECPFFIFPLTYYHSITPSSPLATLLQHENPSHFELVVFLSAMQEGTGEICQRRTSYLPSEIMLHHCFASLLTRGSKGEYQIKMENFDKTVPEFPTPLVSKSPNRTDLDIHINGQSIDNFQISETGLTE

Somatostatin receptor type 1, sequence (P30872 whole entry): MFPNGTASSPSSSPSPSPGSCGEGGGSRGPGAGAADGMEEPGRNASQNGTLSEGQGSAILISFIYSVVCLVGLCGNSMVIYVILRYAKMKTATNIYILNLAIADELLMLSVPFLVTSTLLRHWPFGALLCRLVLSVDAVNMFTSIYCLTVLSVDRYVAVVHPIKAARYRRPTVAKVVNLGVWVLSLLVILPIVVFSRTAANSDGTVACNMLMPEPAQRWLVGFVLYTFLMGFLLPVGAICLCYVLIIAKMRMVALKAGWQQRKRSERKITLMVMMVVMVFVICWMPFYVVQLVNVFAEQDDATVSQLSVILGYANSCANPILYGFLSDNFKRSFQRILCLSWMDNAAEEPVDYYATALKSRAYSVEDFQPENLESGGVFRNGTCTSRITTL

Cc1c([C@@H](O)CN2CCN(C[C@H](O)c3ccc4c(c3C)COC4=O)CC2)ccc2c1COC2=O [MK-7145]
Drug metabolism [1]: Metabolite_Detected | IC50 [2]: 2630 nM | metabolised at 2 h, 1 µM [3]: < 1% | inhibition [4]: inactive | Drug metabolism [5]: Metabolite_Detected | inhibition [6]: inactive

Source: ChEMBL document CHEMBL4425169 (ACS Med Chem Lett, 2016)
